Experimental findings from US20100069407A1, “CXCR2 inhibitors” (priority 2006, published 2010) are described below.

The pIC50 is the negative decadic logarithm of the IC50, by convention in mol/L. High values mean a small IC50, low ones a large IC50.

This assay addresses T1, human CXCR2 receptor (Homo sapiens, UniProt P25025).
T1 construct: purchased Biosignal Packard Inc; host or cells: Chinese hamster ovary cell (CHO-K1) membranes
T1 sequence (P25025 1-360): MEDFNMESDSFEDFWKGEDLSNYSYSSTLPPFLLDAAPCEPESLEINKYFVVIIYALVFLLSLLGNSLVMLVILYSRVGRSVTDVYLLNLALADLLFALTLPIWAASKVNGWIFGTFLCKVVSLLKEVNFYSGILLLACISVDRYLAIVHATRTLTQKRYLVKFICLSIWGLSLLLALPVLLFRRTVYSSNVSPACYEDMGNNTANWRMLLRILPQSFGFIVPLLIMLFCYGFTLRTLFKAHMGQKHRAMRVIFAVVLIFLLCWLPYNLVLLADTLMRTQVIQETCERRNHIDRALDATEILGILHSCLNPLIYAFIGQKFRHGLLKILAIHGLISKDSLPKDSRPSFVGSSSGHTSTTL
The assay is described as follows: [35S]-GTPγS binding assay for human CXCR2 receptor using SPA technology. The settings on record: CHO-K1 membranes expressing human CXCR2; 100 nM IL-8 stimulation. It counts as biochemical. On the technique in general: GTPγS is a poorly hydrolysed GTP analogue; its binding reports G protein activation.

pIC50: −log10 of the molar value.

Procedure: The assay is performed in duplicate in 96 well Optiplate™ microplate in a final volume of 250 μl per well. Compounds are diluted in DMSO (0.5% final concentration) and incubated in 20 mM HEPES buffer pH 7.4 containing 10 mM MgCl2, 100 mM NaCl, 1 mM EDTA plus 100 nM IL-8, 50 μM GDP and 500 μM [^35S]GTPγS per well. SPA beads (1 mg/well final concentration) were pre-mixed with the membranes (10 μg/well final concentration) in assay buffer: 20 mM HEPES buffer pH 7.4 containing 10 mM MgCl2, 100 mM NaCl, 1 mM EDTA. The bead membrane mixture is added to each well, plates are sealed and incubated at room temperature for 60 minutes. The plate is centrifuged and read on Packard TopCount™ scintillation counter, program [^35S dpm] for 1 min/well. Data are expressed as the % response to 100 nM IL-8 minus basal.

Take `CCc1nc2nc(CSc3cccc(F)c3F)cc(O)n2n1` [Example 4]: the negative-log IC50 (pIC50) is 5.62.
